The results in this text go back to PMC4821856, “Novel Anti-Campylobacter Compounds Identified Using High Throughput Screening of a Pre-selected Enriched Small Molecules Library” (Frontiers in Microbiology, 2016).

Data set [1] concerns Caco-2 (human colonic carcinoma) cells. The data set can be described thus: Cytotoxicity by LDH release. It is filed as cell-based. The settings on record: Caco-2 cells, 200 μM; for Cytotoxicity (%): 24 h, LDH release, no FBS. The method, then: (§1) We evaluated 12 selected compounds for cytotoxicity to Caco-2 (human colonic carcinoma) cells as described previously (Xu et al., [2015]). The Caco-2 cells were obtained from the American Type Culture Collection (ATCC Rockville, MD) and maintained in minimal essential medium (MEM) supplemented with 20% fetal bovine serum (FBS), 1% non-essential amino acid (NEAA; Life Technologies, NY) and with 1 mM sodium pyruvate at 37°C in a humidified 5% CO2 incubator. A 96-well tissue culture plate was seeded with approximately 1.4 × 10^5 cells per well and incubated for 24 h at 37°C in an incubator until a confluent monolayer formed. It was necessary to assess the dose dependent cytotoxicity effect of DMSO as compounds were diluted in DMSO therefore, we determined the cytotoxic effect of varying concentrations of the DMSO vehicle control (1, 2, and 5%) in Caco-2 cells containing 150 μL of media (without FBS) incubated at 24 h. There was no significant difference among the varying DMSO concentrations and their cytotoxicity values. Therefore, we used 1% DMSO in duplicate wells along with other appropriate controls for cytotoxicity experiment.
(§2) It is likely that the compounds can bind to serum proteins (FBS) present in the media and thus influence the true cytotoxic effect of the compounds; therefore, we performed the cytotoxicity assay in absence of FBS. The cytotoxicity assay was performed according to manufacturer instructions (Pierce TM; Thermo Scientific, IL) and the percentage of cytotoxicity was calculated by measuring the release of lactate dehydrogenase (LDH) enzyme from the treated cells. Briefly, ~1.4 × 10^5 cells were grown in a 96-well tissue culture plate containing 150 μL of growth medium. After three washes with medium without supplementation, 1 μL (200 μM) of compound was added to duplicate wells and incubated for 24 h at 37°C in a humidified, 5% CO2 incubator. Subsequently, 50 μL of supernatants were collected for measuring LDH release and the degree of cytotoxicity was determined according to the manufacturer instructions.
(§3) Three independent experiments were conducted in duplicate samples in each experiment and the average cytotoxicity values were plotted.
(LDH leaks from cells whose membrane has failed.)

Data set [2] in a line: Cytotoxicity by LDH release. In kind it is cell-based, human. The settings on record: human, Caco-2 cells, 24 h, LDH release, no FBS. The method, then:
as §1, §2, §3

The test system of another data set is C. jejuni 81–176. The data set can be described thus: Minimum inhibitory concentration (MIC), two-fold serial dilution, OD600 end point. In kind it is cell-based. The settings on record: Campylobacter jejuni, 24 h, read-out: C. jejuni MIC (minimum inhibitory concentration). The protocol: A primary screen was conducted using the highly invasive C. jejuni strain 81–176 originally isolated from a diarrheic patient (Korlath et al., [1985]). The C. jejuni strains were routinely grown on Mueller-Hinton (MH; Becton Dickinson and Company, MD) agar under microaerobic conditions (85% N2, 10% CO2, and 5% O2) in a DG250 Microaerophilic Workstation (Microbiology International, MD) for 18 h, washed with MH broth and adjusted to a final OD600 of 0.1 in MH broth. One hundred micro liter of culture was transferred to 96-well plates and 1 μL (200 μM/μL) of library compounds and controls were added using a pin tool (Wallace et al., [2011]). Growth controls including DMSO (1% final concentration), kanamycin (50 μg), and chloramphenicol (20 μg) were added to duplicate wells along with 100 μL un-inoculated MH broth as sterility control. The final concentration was 200 μM for each small molecule. Prior to growth, an aluminum foil was applied (to avoid drug degradation) and plates were then incubated at 42°C, under microaerobic conditions for 24 h. The end-point OD600 was measured in a Sunrise TM Tecan plate reader (Tecan Group Ltd. San Jose, CA). We initially tried to exploit the automatic kinetic OD reader option of the Sunrise TM Tecan system but were un-successful. Maintenance of the microaerophilic growth conditions required by C. jejuni was difficult in the Tecan reader which is ideally suited for aerobic bacteria. Therefore, we used an end point assay. The quality of high-throughput screen (HTS) was evaluated by calculating the Z′-factor as described previously (Zhang et al., [1999]). Z′-factor is defined as 1−((3σp + 3σn)/|μp − μn|)) where “σp” and “σn” are the standard deviations of the positive (culture+ DMSO) and negative (culture+antibiotics) controls, respectively and “μp” and “μn” are the means of the positive and negative controls, respectively. A Z′-factor >0.5 indicates a robust assay (Zhang et al., [1999]).
The percentage of C. jejuni growth inhibition was calculated as mentioned previously (De La Fuente et al., [2006]) using the following formula: percentage of inhibition = 100 × (OD negative control–OD test compound)/(OD negative control–OD positive control). Compounds that inhibited Campylobacter growth ≥ 99.0% were selected as primary hits. The culture in wells with ≥ 99% growth inhibition were streaked onto fresh MH agar, as were the sterility, antibiotic and no compound control wells. Bacterial growth was measured on the plate after 48 h at 42°C. Based on the recovery of C. jejuni on MH agar plates, the compound was classified as either “bacteriostatic” or “bactericidal.”
The dose-dependent effect of 35 compounds against the highly pathogenic C. jejuni 81–176 strain was tested. Compounds were two-fold serially diluted (200 to 12.5 μM). One hundred micro liter of the OD600 0.1 adjusted C. jejuni culture was pipetted in to each well of a 96 well plate, treated with 1 μL of diluted compound and the plate was incubated at 42°C under microaerobic conditions for 24 h. Growth inhibition was assessed as above.
The minimal concentrations of compounds that inhibit the growth of C. jejuni were tested by two-fold serial dilution of each of compound in media as well as in DMSO. The results were reproducible irrespective of diluent used; however, a few compounds precipitated when media was used as a diluent. A recent study also described the in-solubility issues with a few small molecule compounds when dissolved in media for MIC determination (Selin et al., [2015]). […] Among the 21 compounds, 16 were effective at 50 μM, 7 were effective at 25 μM, and 4 were effective at 12.5 μM. We selected top-12 bactericidal compounds with MICs varying from 100 to 12.5 μM concentration for further downstream study.

[3] abbreviates: C. jejuni 81–176, 42°C microaerobic, dilution 200 to 12.5 μM.

≈ marks a conversion by molar mass, not a printed value. Like-named read-outs stand apart in the source and are kept apart here.

For `O=S(=O)(Nc1cccc(C(F)(F)F)c1)c1ccc(Br)cc1` [Comp 1], the “Relative cytotoxicity among the 12 compounds” value in data set [1] is “highest cytotoxicity”. In data set [2], this compound showed a cytotoxicity at 24 h, 200 µM of 30.3%. Besides, the MIC in the data set on C. jejuni 81–176 (setting [3]) came out at 50 µM (≈ 19 µg/mL).

On to `COc1ccc(CN2CCN(c3ccc(F)cc3)CC2)cc1C` [Comp 2], for which the “Cytotoxicity (%)” value in data set [1] was found to be 6.9%. Besides, the cytotoxicity at 24 h, 200 µM in data set [2] is no more than 10%. For the same compound, the MIC in the data set with C. jejuni 81–176 was determined as 100 µM (≈ 31.4 µg/mL).

In turn, `CN(C)c1ccc(CN2CCN(c3ccccc3Cl)CC2)cc1` [Comp 3] gave a cytotoxicity at 24 h, 200 µM in data set [2] of 11.3%. Moreover, the MIC in the data set on C. jejuni 81–176 was 12.5 µM (≈ 4.12 µg/mL).

In the case of `Clc1ccc(N2CCN(Cc3ccsc3)CC2)cc1` [Comp 4], the “Cytotoxicity (%)” value in data set [1] stood at 4.6%. In addition, the MIC in the data set on C. jejuni 81–176 (setting [3]) was 50 µM (≈ 14.6 µg/mL).

`Cc1ccc(N2CCN(C/C=C/c3ccccc3)CC2)cc1` [Comp 5]: the “Cytotoxicity (%)” value in data set [1] worked out at 6.5%. For the same compound, the cytotoxicity at 24 h, 200 µM in data set [2] was no more than 10%. Also, in the data set with C. jejuni 81–176 (setting [3]), the MIC amounted to 50 µM (≈ 14.6 µg/mL).

For `O=c1c(Cl)c(Cl)cnn1-c1ccccc1Cl` [Comp 7], the cytotoxicity at 24 h, 200 µM in data set [2] is 28%. Moreover, in the data set on C. jejuni 81–176 (setting [3]), the MIC amounted to 12.5 µM (≈ 3.44 µg/mL).

`Cc1c(C(C)NCc2cccc(OC3CCCC3)c2)cnn1-c1ccccc1` (centres unmarked) [Comp 10] yielded a cytotoxicity at 24 h, 200 µM in data set [2] of 27.8%. Moreover, the MIC in the data set with C. jejuni 81–176 (setting [3]) was 50 µM (≈ 18.8 µg/mL).

`COc1ccc(CNCc2ccc(Cl)s2)cc1OCC(O)CN1CCCC1` (centres unmarked) [Comp 12]: in data set [1], the “Relative cytotoxicity among the 12 compounds” value was “least cytotoxic” and the “Cytotoxicity (%)” value was found to be 0%. Further, the MIC in the data set on C. jejuni 81–176 (setting [3]) worked out at 100 µM (≈ 41.1 µg/mL).

`CN(Cc1cccc2cnccc12)CC1CCCN(CCc2ccc(F)cc2)C1` (centres unmarked) [Comp 13]: in data set [1], the “Relative cytotoxicity among the 12 compounds” value was “least cytotoxic” and the “Cytotoxicity (%)” value was 0%. Moreover, the MIC with C. jejuni 81–176 (setting [3]) is 12.5 µM (≈ 4.89 µg/mL).

With `CN(CC(O)COc1ccccc1CNC1(c2ccccc2)CC1)C1CCCCC1` (centres unmarked) [Comp 17], the cytotoxicity at 24 h, 200 µM in data set [2] came to 16.6%. Besides, the MIC with C. jejuni 81–176 (setting [3]) was found to be 12.5 µM (≈ 5.11 µg/mL).

Turning to `CN(Cc1ccccc1)CC1CCCN(CCc2ccc(F)cc2)C1` (centres unmarked) [Comp 18], the cytotoxicity at 24 h, 200 µM in data set [2] worked out at 8.8%. The MIC in the data set on C. jejuni 81–176 (setting [3]) is 25 µM (≈ 8.51 µg/mL).

In data set [2], `CC(=O)Nc1ccc(CN(C)CC2CCCN(CCc3cccc(C(F)(F)F)c3)C2)cc1` (centres unmarked) [Comp 22] displayed a cytotoxicity at 24 h, 200 µM of 12.1%. The MIC with C. jejuni 81–176 (setting [3]) amounted to 12.5 µM (≈ 5.59 µg/mL).
